Laboratory results from ChEMBL document CHEMBL1155157, “Fosamprenavir plus ritonavir increases plasma ketoconazole and ritonavir exposure, while amprenavir exposure remains unchanged” (Antimicrob Agents Chemother, 2007).

Assays:
[1] = AUC (0 to tau) in human plasma at 200 mg qd for 4 days; type: ADME, organism-based
[2] = Cmax in human plasma at 200 mg qd for 4 days; type: ADME, organism-based; design: dose 200 mg

CC(=O)N1CCN(c2ccc(OCC3COC(Cn4ccnc4)(c4ccc(Cl)cc4Cl)O3)cc2)CC1 (configuration not stated) [KETOCONAZOLE]
AUC tau at 96 h [1]: 16600 ng·h/mL
Cmax [2]: 3770 ng/mL
